Source: US9486422B2, “Small molecule inhibitors of Mcl-1 and the uses of thereof” (THE REGENTS OF THE UNIVERSITY OF MICHIGAN, priority 2011, dated 2016)

Key:
[1] = test system: bone marrow derived cells from patients with multiple myeloma; assay: Cellular viability (trypan blue), multiple myeloma patient cells; assay type: cell-based; settings: Homo sapiens, 0-10 μM, 0-72 hrs
Source text: Blood or bone marrow samples from multiple myeloma patients was obtained from treated or untreated patients after informed consent. Plasma cells were obtained after gradient density centrifugation using Ficoll Hypaque. Some samples were purified for C138^+ population using flow cytometry. In all cases, purity of the plasma cells was higher than 90%, as assessed by morphology.
Isolated MM cells were maintained in RPMI 1640 medium supplemented with 10% fetal bovine serum (Hyclone Laboratories, Logan, Utah) and 1% Penicillin-Streptomycin (Invitrogen, Carlsbad, Calif.), at 37° C. in a humidified incubator with 5% CO2. […] The number of viable cells was determined by trypan blue exclusion test with trypan blue (0.4%) purchased from Sigma Chemical Co. (St. Louis, Mo.). All experiments are performed in triplicate and statistical analysis was done using the t test (two tailed) with 95% confidence intervals between treated and untreated samples. P<0.05 was used to indicate statistical significance.

[2] = test system: wild type (WT) murine embryonic fibroblasts (MEF); assay: Induction of apoptosis in MEF WT cells; assay type: cell-based; settings: 10 μM, 24 h
[3] = Metabolic stability assay, liver microsomes; assay type: in vitro ADME, mice; settings: mouse, pooled mouse liver microsomes; 1 μM compound, 1.2 mg/ml microsomes, 37° C.
Procedure: Metabolic stability of UMI-77 was determined using the pooled mice liver microsomes (XenoTech, LLC). The conditions of the assay and quantification of UMI-77 in different time points are provided.
The β-NADPH (Sigma-Aldrich) was dissolved in 0.1 M phosphate buffer containing 3.3 mM MgCl2 right before use. The pooled mice liver microsomes (XenoTech, LLC) were diluted with 0.1 M phosphate buffer containing 3.3 mM MgCl2, followed by adding the reduced β-NADPH solution. After initiating the enzymes by adding β-NADPH, the mixture was incubated at 37° C. for […] The tested compound UMI-77 was added into the mixture and incubated at 37° C. The final concentrations of the compound, microsomes, β-NADPH, phosphate buffer and MgCl2 were 1 μM, 1.2 mg/ml, 1 mM, 0.1 M, and 3.3 mM, respectively. An aliquot of 40 μl of mixture was collected at 0, 5, 10, 15, 30, 45 and 60 min and the reaction was stopped immediately by adding 120 μl of ice-cold acetonitrile containing an internal standard (100 mg/mL). The incubation solution was centrifuged at 14000 rpm for 5 minutes to precipitate protein. The UMI-77 concentration was determined by LC/MS/MS (Agilent 1200 HPLC system, Agilent Technologies and QTRAP 3200 mass spectrometer, Applied Biosystems/MDS Sciex). UMI-77 was detected under negative ionization mode and the multiple reaction monitoring (MRM) ion transition was m/z 468.1→221.0.

Bcl-xL = Bcl-xL (Homo sapiens, UniProt Q07817, DEL45-85); assay: FP-based binding assay, Bcl-xL
[4] = test system: activated Bax in BxPC-3 cells; assay: Bax activation, 6A7 anti-Bax immunostaining, BxPC-3; assay type: cell-based, human; settings: 24 h
Procedure: Cells mounted on glass slides were permeabilized with PBS containing 0.3% Triton X-100, and blocked with 1% bovine serum albumin in PBS for 30 min at room temperature, followed with overnight incubation with anti-Bak 6A7 (Calbiochem) at 4° C. After thorough washing of the sections in PBS, a secondary antibody labeled with DyLight 488 (Thermo Scientific) was added and incubated for 2 h at room temperature. Nuclei were visualized with DAPI. Samples were analyzed with a FluoView 500 Confocal Laser Scanning Microscope (Olympus).

AsPc1 = assay: Cell growth inhibition (WST-8), AsPc1; assay type: cell-based; settings: Homo sapiens, ASPC1, 96 h; 4 days treatment
Procedure: Human PC cell lines AsPC-1, BxPC-3 and Capan-2 were cultured in RPMI 1640 medium, while Panc-1 and MiaPaCa were cultured in DMEM medium (Life Technologies), all supplemented with 10% fetal bovine serum (Thermo Scientific HyClone). The rate of cell growth inhibition after treatment with increasing concentrations of the tested compounds was determined by WST-8 assay as described in the manufacturers protocol (Dojindo Molecular Technologies Inc.).

Bcl-2 [5] = assay: FP-based binding assay, Bcl-2
Bcl-2 [6] = biological target: T1, Bcl-2 (Homo sapiens, UniProt P10415); assay: FP-based binding assay, Bcl-2; settings: read-out: Bcl-2 Ki ± SD
T1 construct: His-tagged proteins containing; fused on or other part: A 16-residue segment of the flexible loop of Bcl-xL (BCL2L1, Q07817; given as residues 35 to 50) set into the Bcl-2 loop region; His tag with TEV site from the pHis-TEV vector

[7] = biological target: Mcl-1/Bax protein-protein interactions (Homo sapiens, UniProt Q07820); assay: SPR competitive solution binding assay, Mcl-1 to immobilized Bax; settings: Mcl-1 300 nM pre-incubated with inhibitor; read-out: IC50, inhibition of binding of Mcl-1 to Bax
Procedure: SPR experiments were performed using Biacore 2000 optical biosensors. Recombinant Bax, residues 1 to 100 (Novus Biologicals) and Mcl-1 proteins were used for competitive solution binding experiments. The details for immobilization of Bax protein, determination of the binding affinity of Mcl-1 to Bax, and conditions for testing Mcl-1 compounds are provided.
Recombinant Bax protein (residues 1-100) purchased from Novus Biologicals, Inc., was immobilized on a CM-5 sensor chip at different densities using standard EDC/NHS coupling chemistry followed by ethanolamine deactivation of the surfaces. […] Determination of kon, koff and Kd were calculated by simultaneous non-linear regression using BIAEvaluation software.
Using the same Bax immobilized CM5 chip, SPR competitive solution binding experiments were performed by pre-incubated Mcl-1 protein (300 nM) with tested small-molecule inhibitors for at least 30 minutes and then the reaction mixture was injected over the surfaces of the chip. Response units were measured at 60 seconds in the dissociation phase and the specific binding was calculated by subtracting the control surface (Fc1) signal from the surfaces with immobilized Bax. […] IC50 values were determined by non-linear least squares analysis using Graph Pad Prism 5.0 software.

Chain of Bcl-xL (Q07817 other isoform, or with tags, fused parts or gaps DEL45-85): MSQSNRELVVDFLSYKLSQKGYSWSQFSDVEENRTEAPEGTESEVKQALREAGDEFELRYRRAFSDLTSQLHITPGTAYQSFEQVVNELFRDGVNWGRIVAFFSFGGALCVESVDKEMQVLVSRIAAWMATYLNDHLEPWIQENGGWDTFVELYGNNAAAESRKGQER
T1 sequence (P10415 with tags, fused parts or gaps with the stated changes): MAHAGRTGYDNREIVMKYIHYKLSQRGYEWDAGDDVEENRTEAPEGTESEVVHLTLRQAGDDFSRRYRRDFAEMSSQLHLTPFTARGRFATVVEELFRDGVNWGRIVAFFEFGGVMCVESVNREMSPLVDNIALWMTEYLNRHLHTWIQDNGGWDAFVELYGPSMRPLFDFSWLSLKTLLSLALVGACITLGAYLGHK
Chain of Mcl-1/Bax protein-protein interactions (Q07820 171-327): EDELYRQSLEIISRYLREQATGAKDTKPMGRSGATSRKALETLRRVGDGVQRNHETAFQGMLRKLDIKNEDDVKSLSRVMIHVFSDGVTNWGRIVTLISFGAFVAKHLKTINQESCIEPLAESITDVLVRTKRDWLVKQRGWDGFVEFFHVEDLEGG

**Q.** Which IC50 [1] does the source give for O=C(O)CSc1cc(NS(=O)(=O)c2ccc(Br)cc2)c2ccccc2c1O [Compound 9, 2-((4-(4-Bromophenylsulfonamido)-1-hydroxynaphthalen-2-yl)thio)acetic acid] here?
**A.** 2.5 to 5 µM

**Q.** And the “apoptosis in MEF WT cells” value [2]?
**A.** more than 60%

**Q.** And the half-life at 1 μM [3]?
**A.** 45 min

**Q.** And the “fold lower affinity to Bcl-xL than to Mcl-1 (selectivity)” value (Bcl-xL)?
**A.** more than 50 fold

**Q.** And the Ki (Bcl-xL; read-out: Bcl-xL Ki ± SD)?
**A.** 33 ± 4.33 µM

**Q.** And the “concentration from which activated Bax increases” value [4]?
**A.** ≥ 5 µM

**Q.** What about the IC50 (AsPc1) of the same compound?
**A.** 16.1 ± 4.2 µM

**Q.** And the “fold lower affinity to Bcl-2 than to Mcl-1 (selectivity)” value (Bcl-2 [5])?
**A.** more than 50 fold

**Q.** What about the Ki (Bcl-2 [6]) of the same compound?
**A.** 23.8 ± 1.81 µM

**Q.** And the IC50 [7]?
**A.** 1.43 ± 0.14 µM
